Measurements reported in ChEMBL document CHEMBL1201861, “Genomics of Drug Sensitity in Cancer screening data, Wellcome Trust Sanger Institute”.

Columns and labels:
Test in all cases: cells
[1] = test system: LN-405; assay type: functional, cell-based, Homo sapiens; settings: Homo sapiens, LN-405
Description: SANGER: Inhibition of human LN-405 cell growth in a cell viability assay.

[2] = test system: TGBC1TKB; assay type: functional, cell-based, Homo sapiens; settings: Homo sapiens, TGBC1TKB;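 note: growth inhibition of TGBC1TKB cells, read out by a cell viability assay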
Description: SANGER: Inhibition of human TGBC1TKB cell growth in a cell viability assay.

[3] = test system: GT3TKB; assay type: functional, cell-based, Homo sapiens; settings: Homo sapiens, GT3TKB;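 note: growth inhibition of the cell line, read out with a cell viability assay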
Description: SANGER: Inhibition of human GT3TKB cell growth in a cell viability assay.

[4] = test system: GMS-10; assay type: functional, cell-based, Homo sapiens; settings: Homo sapiens, GMS-10;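 note: growth inhibition of GMS-10 cells, read out as cell viability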
Description: SANGER: Inhibition of human GMS-10 cell growth in a cell viability assay.

[5] = test system: CHP-212; assay type: functional, cell-based, Homo sapiens; settings: Homo sapiens, CHP-212
Description: SANGER: Inhibition of human CHP-212 cell growth in a cell viability assay.

[6] = test system: VA-ES-BJ; assay type: functional, cell-based, Homo sapiens; settings: Homo sapiens, VA-ES-BJ;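 note: growth inhibition of the VA-ES-BJ cell line, read out by a cell viability assay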
Description: SANGER: Inhibition of human VA-ES-BJ cell growth in a cell viability assay.

[7] = test system: SF-126; assay type: functional, cell-based, Homo sapiens; settings: Homo sapiens, SF-126;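 note: growth inhibition of human SF126 cells, read out with a cell viability assay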
Description: SANGER: Inhibition of human SF126 cell growth in a cell viability assay.

[8] = test system: DMS-273; assay type: functional, cell-based, Homo sapiens; settings: Homo sapiens, DMS-273
Description: SANGER: Inhibition of human DMS-273 cell growth in a cell viability assay.

[9] = test system: EW-11; assay type: functional, cell-based, Homo sapiens; settings: Homo sapiens, EW-11;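 note: growth inhibition of human EW-11 cells, measured with a cell viability assay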
Description: SANGER: Inhibition of human EW-11 cell growth in a cell viability assay.

[10] = test system: Lu-65; assay type: functional, cell-based; settings: Homo sapiens;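 note: growth inhibition of Lu-65 cancer cells, read out by a cell viability assay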
Description: SANGER: Inhibition of human LU-65 cell growth in a cell viability assay.

[11] = test system: LB996-RCC; assay type: functional, cell-based; settings: Homo sapiens
Description: SANGER: Inhibition of human LB996-RCC cell growth in a cell viability assay.

[12] = test system: BFTC-909; assay type: functional, cell-based, Homo sapiens; settings: Homo sapiens, BFTC-909
Description: SANGER: Inhibition of human BFTC-909 cell growth in a cell viability assay.

[13] = test system: OMC-1; assay type: functional, cell-based, Homo sapiens; settings: Homo sapiens, OMC-1;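 note: growth inhibition of the OMC-1 cell line, measured by a cell viability assay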
Description: SANGER: Inhibition of human OMC-1 cell growth in a cell viability assay.

[14] = test system: Ca9-22; assay type: functional, cell-based, Homo sapiens; settings: Homo sapiens, Ca9-22;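 note: growth inhibition of Ca9-22 cells, read out with a cell viability assay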
Description: SANGER: Inhibition of human Ca9-22 cell growth in a cell viability assay.

[15] = test system: NCI-H1793; assay type: functional, cell-based, Homo sapiens; settings: Homo sapiens, NCI-H1793;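 note: cell growth inhibition, read out by a cell viability assay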
Description: SANGER: Inhibition of human NCI-H1793 cell growth in a cell viability assay.

[16] = test system: Huh-7; assay type: functional, cell-based, Homo sapiens; settings: Homo sapiens, Huh-7;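 note: HuH-7 cell growth inhibition, read out with a cell viability assay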
Description: SANGER: Inhibition of human HuH-7 cell growth in a cell viability assay.

[17] = test system: NCI-H810; assay type: functional, cell-based, Homo sapiens; settings: Homo sapiens, NCI-H810;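 note: IC50 reflects inhibition of cancer cell line growth, read out with a cell viability assay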
Description: SANGER: Inhibition of human NCI-H810 cell growth in a cell viability assay.

[18] = test system: DU-145; assay type: functional, cell-based, Homo sapiens; settings: Homo sapiens, DU-145
Description: SANGER: Inhibition of human DU-145 cell growth in a cell viability assay.

[19] = test system: SW756; assay type: functional, cell-based, Homo sapiens; settings: Homo sapiens, SW756;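 note: growth inhibition of human SW756 cells, read out with a cell viability assay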
Description: SANGER: Inhibition of human SW756 cell growth in a cell viability assay.

[20] = test system: HCC 2998; assay type: functional, cell-based, Homo sapiens; settings: Homo sapiens, HCC 2998;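 note: growth inhibition of human HCC2998 cells, measured with a cell viability read-out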
Description: SANGER: Inhibition of human HCC2998 cell growth in a cell viability assay.

[21] = test system: KINGS-1; assay type: functional, cell-based, Homo sapiens; settings: Homo sapiens, KINGS-1;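 note: cell viability assay measuring suppression of KINGS-1 cell growth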
Description: SANGER: Inhibition of human KINGS-1 cell growth in a cell viability assay.

[22] = test system: UACC-257; assay type: functional, cell-based, Homo sapiens; settings: Homo sapiens, UACC-257
Description: SANGER: Inhibition of human UACC-257 cell growth in a cell viability assay.

[23] = test system: GI-ME-N; assay type: functional, cell-based, Homo sapiens; settings: Homo sapiens, GI-ME-N;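 note: growth inhibition of human GI-ME-N cells, read out with a cell viability assay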
Description: SANGER: Inhibition of human GI-ME-N cell growth in a cell viability assay.

[24] = test system: IST-MES1; assay type: functional, cell-based, Homo sapiens; settings: Homo sapiens, IST-MES1;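 note: growth inhibition of IST-MES1 cells, measured with a cell viability assay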
Description: SANGER: Inhibition of human IST-MES1 cell growth in a cell viability assay.

[25] = test system: DOK; assay type: functional, cell-based, Homo sapiens; settings: Homo sapiens, DOK;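 note: cell viability assay read-out, values reflect inhibition of cell growth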
Description: SANGER: Inhibition of human DOK cell growth in a cell viability assay.

[26] = test system: C32; assay type: functional, cell-based, Homo sapiens; settings: Homo sapiens, C32;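 note: cell viability assay, with IC50 reflecting inhibition of C32 cell growth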
Description: SANGER: Inhibition of human C32 cell growth in a cell viability assay.

[27] = test system: HCT-116; assay type: functional, cell-based, Homo sapiens; settings: Homo sapiens, HCT-116
Description: SANGER: Inhibition of human HCT-116 cell growth in a cell viability assay.

[28] = test system: 5637; assay type: functional, cell-based, Homo sapiens; settings: Homo sapiens
Description: SANGER: Inhibition of human 5637 cell growth in a cell viability assay.

[29] = test system: Ca-Ski; assay type: functional, cell-based; settings: Homo sapiens;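 note: cell viability assay measuring inhibition of Ca-Ski cell growth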
Description: SANGER: Inhibition of human Ca-Ski cell growth in a cell viability assay.

[30] = test system: IST-MEL1; assay type: functional, cell-based, Homo sapiens; settings: Homo sapiens, IST-MEL1;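 note: growth inhibition of the cell line, read out with a cell viability assay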
Description: SANGER: Inhibition of human IST-MEL1 cell growth in a cell viability assay.

[31] = test system: OVCAR-3; assay type: functional, cell-based, Homo sapiens; settings: Homo sapiens, OVCAR-3;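 note: growth inhibition of human OVCAR-3 cells, determined by a cell viability assay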
Description: SANGER: Inhibition of human OVCAR-3 cell growth in a cell viability assay.

[32] = test system: NB69; assay type: functional, cell-based, Homo sapiens; settings: Homo sapiens, NB69;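 note: growth inhibition of NB69 cells, determined by a cell viability assay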
Description: SANGER: Inhibition of human NB69 cell growth in a cell viability assay.

[33] = test system: SiHa; assay type: functional, cell-based, Homo sapiens; settings: Homo sapiens, SiHa;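 note: Viability-based readout of growth inhibition in SiHa cells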
Description: SANGER: Inhibition of human SiHa cell growth in a cell viability assay.

[34] = test system: SW684; assay type: functional, cell-based, Homo sapiens; settings: Homo sapiens, SW684;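 note: growth inhibition of human SW684 cells, measured by a cell viability assay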
Description: SANGER: Inhibition of human SW684 cell growth in a cell viability assay.

[35] = test system: NCI-H1395; assay type: functional, cell-based, Homo sapiens; settings: Homo sapiens, NCI-H1395;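 note: cell viability assay read-out quantifying reduced proliferation of human NCI-H1395 cells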
Description: SANGER: Inhibition of human NCI-H1395 cell growth in a cell viability assay.

[36] = test system: IGR-1; assay type: functional, cell-based, Homo sapiens; settings: Homo sapiens, IGR-1;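 note: growth inhibition of human IGR-1 cells, read out with a cell viability assay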
Description: SANGER: Inhibition of human IGR-1 cell growth in a cell viability assay.

[37] = test system: LCLC-103H cell line; assay type: functional, cell-based, Homo sapiens; settings: Homo sapiens, LCLC-103H
Description: SANGER: Inhibition of human LCLC-103H cell growth in a cell viability assay.

[38] = test system: SW1990; assay type: functional, cell-based, Homo sapiens; settings: Homo sapiens, SW1990;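 note: cell growth inhibition determined with a viability assay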
Description: SANGER: Inhibition of human SW1990 cell growth in a cell viability assay.

[39] = test system: MIA PaCa-2; assay type: functional, cell-based, Homo sapiens; settings: Homo sapiens, MIA PaCa-2;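 note: growth inhibition of MIA PaCa-2 cells, read out with a cell viability assay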
Description: SANGER: Inhibition of human MIA-PaCa-2 cell growth in a cell viability assay.

[40] = test system: NCI-H1792; assay type: functional, cell-based, Homo sapiens; settings: Homo sapiens, NCI-H1792;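 note: growth inhibition of human NCI-H1792 cells, read out as cell viability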
Description: SANGER: Inhibition of human NCI-H1792 cell growth in a cell viability assay.

[41] = test system: NCI-H69; assay type: functional, cell-based; settings: Homo sapiens;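 note: growth inhibition of the cell line, read out with a cell viability assay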
Description: SANGER: Inhibition of human NCI-H69 cell growth in a cell viability assay.

[42] = test system: KYSE-450; assay type: functional, cell-based; settings: Homo sapiens;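 note: cell growth inhibition measured by a viability assay in human KYSE-450 cells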
Description: SANGER: Inhibition of human KYSE-450 cell growth in a cell viability assay.

[43] = test system: NCI-H2228; assay type: functional, cell-based, Homo sapiens; settings: Homo sapiens, NCI-H2228;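 note: growth inhibition of human NCI-H2228 cells, read out by a cell viability assay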
Description: SANGER: Inhibition of human NCI-H2228 cell growth in a cell viability assay.

[44] = test system: MLMA; assay type: functional, cell-based, Homo sapiens; settings: Homo sapiens, MLMA;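 note: growth inhibition of MLMA cells (human), determined through a cell viability readout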
Description: SANGER: Inhibition of human MLMA cell growth in a cell viability assay.

[45] = test system: NCI-N87; assay type: functional, cell-based, Homo sapiens; settings: Homo sapiens, NCI-N87;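 note: growth inhibition of human NCI-N87 cells, read out with a cell viability assay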
Description: SANGER: Inhibition of human NCI-N87 cell growth in a cell viability assay.

[46] = test system: HMV-2 cell line; assay type: functional, cell-based, Homo sapiens; settings: Homo sapiens, HMV-2;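 note: growth inhibition of HMV-II cells, read out with a cell viability assay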
Description: SANGER: Inhibition of human HMV-II cell growth in a cell viability assay.

[47] = test system: NCI-H2122; assay type: functional, cell-based, Homo sapiens; settings: Homo sapiens, NCI-H2122;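 note: growth inhibition of the cells, read out with a cell viability assay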
Description: SANGER: Inhibition of human NCI-H2122 cell growth in a cell viability assay.

[48] = test system: COR-L88; assay type: functional, cell-based; settings: Homo sapiens;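 note: growth inhibition of COR-L88 cells, read out with a cell viability assay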
Description: SANGER: Inhibition of human COR-L88 cell growth in a cell viability assay.

[49] = test system: QIMR-WIL; assay type: functional, cell-based; settings: Homo sapiens;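 note: growth inhibition of QIMR-WIL cells, read out with a cell viability assay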
Description: SANGER: Inhibition of human QIMR-WIL cell growth in a cell viability assay.

[50] = test system: NCI-H596; assay type: functional, cell-based, Homo sapiens; settings: Homo sapiens, NCI-H596;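 note: growth inhibition of NCI-H596 cells, read out with a cell viability assay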
Description: SANGER: Inhibition of human NCI-H596 cell growth in a cell viability assay.

CCOc1nc(NC(=O)Cc2cc(OC)ccc2OC)cc(N)c1C#N
IC50 [1]: > 10 µM
IC50 [2]: > 10 µM
IC50 [3]: > 10 µM
IC50 [4]: > 10 µM
IC50 [5]: > 10 µM
IC50 [6]: > 10 µM
IC50 [7]: > 10 µM
IC50 [8]: > 10 µM
IC50 [9]: > 10 µM
IC50 [10]: > 10 µM
IC50 [11]: > 10 µM
IC50 [12]: > 10 µM
IC50 [13]: > 10 µM
IC50 [14]: > 10 µM
IC50 [15]: > 10 µM
IC50 [16]: > 10 µM
IC50 [17]: > 10 µM
IC50 [18]: > 10 µM
IC50 [19]: > 10 µM
IC50 [20]: > 10 µM
IC50 [21]: > 10 µM
IC50 [22]: > 10 µM
IC50 [23]: > 10 µM
IC50 [24]: > 10 µM
IC50 [25]: > 10 µM
IC50 [26]: > 10 µM
IC50 [27]: > 10 µM
IC50 [28]: > 10 µM
IC50 [29]: > 10 µM
IC50 [30]: > 10 µM
IC50 [31]: > 10 µM
IC50 [32]: > 10 µM
IC50 [33]: > 10 µM
IC50 [34]: > 10 µM
IC50 [35]: > 10 µM
IC50 [36]: > 10 µM
IC50 [37]: > 10 µM
IC50 [38]: > 10 µM
IC50 [39]: > 10 µM
IC50 [40]: > 10 µM
IC50 [41]: > 10 µM
IC50 [42]: > 10 µM
IC50 [43]: > 10 µM
IC50 [44]: > 10 µM
IC50 [45]: > 10 µM
IC50 [46]: > 10 µM
IC50 [47]: > 10 µM
IC50 [48]: > 10 µM
IC50 [49]: > 10 µM
IC50 [50]: > 10 µM

O=C1N=C(NCc2cccs2)S/C1=C\c1ccc2ncccc2c1
IC50 [1]: > 5 µM
IC50 [2]: > 5 µM
IC50 [3]: > 5 µM
IC50 [4]: > 5 µM
IC50 [5]: > 5 µM
IC50 [6]: > 5 µM
IC50 [7]: > 5 µM
IC50 [8]: > 5 µM
IC50 [9]: > 5 µM
IC50 [10]: > 5 µM
IC50 [11]: > 5 µM
IC50 [12]: > 5 µM
IC50 [13]: > 5 µM
IC50 [14]: > 5 µM
IC50 [15]: > 5 µM
IC50 [16]: > 5 µM
IC50 [17]: > 5 µM
IC50 [18]: > 5 µM
IC50 [19]: > 5 µM
IC50 [20]: > 5 µM
IC50 [21]: > 5 µM
IC50 [22]: > 5 µM
IC50 [23]: > 5 µM
IC50 [24]: > 5 µM
IC50 [25]: > 5 µM
IC50 [26]: > 5 µM
IC50 [27]: > 5 µM
IC50 [28]: 3.09 µM
IC50 [29]: > 5 µM
IC50 [30]: > 5 µM
IC50 [31]: > 5 µM
IC50 [32]: > 5 µM
IC50 [33]: > 5 µM
IC50 [34]: > 5 µM
IC50 [35]: > 5 µM
IC50 [36]: > 5 µM
IC50 [37]: > 5 µM
IC50 [38]: > 5 µM
IC50 [39]: > 5 µM
IC50 [40]: > 5 µM
IC50 [41]: > 5 µM
IC50 [42]: > 5 µM
IC50 [43]: > 5 µM
IC50 [44]: > 5 µM
IC50 [45]: > 5 µM
IC50 [46]: > 5 µM
IC50 [47]: > 5 µM
IC50 [48]: 3.48 µM
IC50 [49]: > 5 µM
IC50 [50]: > 5 µM
